{"source": "patent US20260207481A1", "about": "“INTRANASAL […] OF C[…] TREAT CENTRAL NERVOUS SYSTEM DISORDERS” (Nose to Brain Therapeutics LLC, priority 2019, published 2026)", "origin": "cited, not measured here", "key": {"CB2": {"biological_target": "CB2 (Homo sapiens, UniProt P34972)", "sequence (P34972 whole entry)": "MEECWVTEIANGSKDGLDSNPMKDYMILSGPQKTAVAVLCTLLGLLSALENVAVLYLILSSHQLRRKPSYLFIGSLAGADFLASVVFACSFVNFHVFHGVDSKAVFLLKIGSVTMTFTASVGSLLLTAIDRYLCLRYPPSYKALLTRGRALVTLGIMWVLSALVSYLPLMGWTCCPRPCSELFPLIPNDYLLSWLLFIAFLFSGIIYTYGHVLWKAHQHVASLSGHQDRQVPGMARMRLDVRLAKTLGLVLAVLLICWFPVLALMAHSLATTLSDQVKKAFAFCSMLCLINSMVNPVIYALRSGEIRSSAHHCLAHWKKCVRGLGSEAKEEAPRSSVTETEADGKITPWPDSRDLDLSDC"}, "[1]": {"conditions": "oral mucosal sprays compared to IV administration (FIG. 2)"}}}
{"smiles": "C=C(C)[C@@H]1CCC(C)=C[C@H]1c1c(O)cc(CCCCC)cc1O", "note": "[CBD, Cannabidiol]", "values": [{"measurement": "binding affinity to CB2", "setting": "CB2", "result": "minimal"}, {"measurement": "Cmax", "setting": "[1]", "result": "poor"}]}
